Laboratory results as given in patent US20070202079A1, “Therapeutic compositions and methods useful in modulating protein tyrosine phosphatases” (priority 2006, published 2007).

Legend:
[1] = target: T1, Flag-PRL-2 (Homo sapiens, UniProt Q12974); assay: immunocomplex PTPase assay, NIH3T3 Flag-PRL-2 transfectants; assay type: cell-based, mouse
T1 construct: expressed in transfected cells; host or cells: NIH3T3 (pBabepuro, puromycin-selected)
Description: (§1) Immunocomplex PTPase assays were performed to assess the effects of sodium stibogluconate on intracellular PTPases. Cells were untreated or treated with sodium stibogluconate for 5 minutes, washed with fresh medium and then lysed in cold lysis buffer (50 mM Tris, pH 7.4; 150 mM NaCl; 1% NP40; 2 mM PMSF; 20 μg/ml of Aprotinin). The lysates were incubated with an anti-Flag antibody in immunoprecipitation assays. The immunocomplexes were collected with protein G sepharose beads (Pharmacia) and washed in cold lysis buffer for 4 times. […] C. for 18 hrs. 100 μL of malachite green solution (UBI) was added to each reaction prior to measurement of OD660 to quantify the amounts of free phosphate cleaved by the PTPases from the peptide substrate (Pathak et al., J. Immunol. 167, 3391 (2001)). The remaining 10% contents of individual samples were analyzed by SDS-PAGE/Western blotting to quantify the relative amounts of the phosphatase proteins. […]
(§2) The effects of sodium stibogluconate on intracellular PTPases were assessed using NIH3T3 or WM9 transfectants. […]

[2] = target: T2, Flag-PRL-3 (Homo sapiens, UniProt O75365); assay: immunocomplex PTPase assay, NIH3T3 Flag-PRL-3 transfectants; assay type: cell-based, mouse; settings: cells treated 5 min
T2 construct: expressed in transfected cells; host or cells: NIH3T3 (pBabepuro, puromycin-selected)
T2 sequence (O75365 whole entry): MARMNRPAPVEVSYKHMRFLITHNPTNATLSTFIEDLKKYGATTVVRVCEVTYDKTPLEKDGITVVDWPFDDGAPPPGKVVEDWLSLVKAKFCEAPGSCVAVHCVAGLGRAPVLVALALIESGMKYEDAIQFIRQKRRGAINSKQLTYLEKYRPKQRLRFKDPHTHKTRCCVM
Description: as §1, §2

[3] = system: NB4 cells; assay: NB4 differentiation (NBT reduction, CD11b); assay type: cell-based, human; settings: 6 days with drug, washed, 6 days without
Description: Differentiation of AML cell lines was assessed by their ability to produce superoxide as measured by reduction of NBT to formazan and by analysis of expression of CD11b surface marker by flow cytometry. For NBT reduction, each cell suspension was mixed with an equal volume of solution containing 1 mg/ml of NBT (Sigma) and 2.5 μg/ml of TPA for 30 minutes at 37° C. After incubation, cells containing the purple formazan deposits and cells devoid of NBT-reducing activity (white cells) in each sample were determined by counting 200 cells under microscope. Data is expressed as a percentage based on the following ratio: purple cells/purple+white cells. For analysis of cell surface antigens, cells were exposed to phycoerythrin (PE)-conjugated murine anti-human CD11b (DAKO Corp., Carpinteria, Calif.). Analysis of fluorescence was performed on a FACScan flow cytometer (Beckton Dickinson, Mountain View, Calif.).

[4] = system: TF-1 cells; assay: TF-1 cell proliferation assay; assay type: cell-based, human; settings: 50 μg/ml
Description: The murine hematopoietic cell line Baf3 was maintained in RPMI 1640 medium supplemented with 10% fetal calf serum (FCS) and murine IL-3 (20 units/ml) as described previously in Damen et al., J. Biol. Chem. 270, 23402 (1995). Human myeloid cell line TF-1 was maintained in RPMI 1640 supplemented with 10% FCS and 40 ng/ml of recombinant human GM-CSF as described previously in Thomassen et al., Clin. Immunol. 95, 85 (2000). For cell proliferation assays, cells were washed in 10% FCS medium twice, resuspended in 10% FCS medium, incubated at 37° C. for 16 hours, and then cultured at 37° C. in 10% FCS medium containing various amounts of cytokines, sodium stibogluconate, or potassium antimonyl tartrate for 3-6 days as indicated. The cell numbers in proliferation assays were determined by an MTT assay or by microscopic cell counting as indicated.

[5] = system: Jak2/Stat5 tyrosine phosphorylation in Baf3 cells; assay: cellular protein tyrosine phosphorylation in Baf3 cells, Western blotting; assay type: cell-based, murine
Description: For induction of cellular protein phosphorylation by sodium stibogluconate or pervanadate, Baf3 cells were incubated in 0.1% FCS-RPMI 1640 medium at 37° C. for 16 hours. The cells were then washed twice in RPMI 1640 medium and incubated with sodium stibogluconate or pervanandate (0.1 mM) for various times prior to termination by lysing cells in cold lysis buffer (50 mM Tris, pH 7.4; 150 mM NaCl; 0.2 mM Na3VO4; 20 mm NaF; 1% Nonidet P-40; 2 mM PMSF; 20 μg/ml of Aprotinin and 1 mM of sodium molybdic acid). To determine the effect of sodium stibogluconate or potassium antimonyl tartrate on IL-3-induced Jak/Stat phosphorylation, Baf3 cells were deprived of the growth factor for 16 hours in 0.1% FCS RPMI 1640 medium and then incubated with or without sodium stibogluconate or potassium antimonyl tartrate for 10 minutes. IL-3 was next added to the cell suspension and incubated for various times. The Cells were then harvested and lysed in cold lysis buffer at 4° C. for 45 minutes. Total cell lysates (TCL) were separated in SDS-PAGE gels, blotted onto nitrocellulose membrane (Schleicher & Schuell), probed with specific antibodies and detected using an enhanced chemiluminescence kit (ECL, Amersham, Arlington Heights, Ill.).

[6] = system: Jurkat cells; assay: IFN-gamma secretion by Jurkat cells, ELISA; assay type: cell-based, human; settings: 16 hours
Description: Jurkat cells were cultured in the absence or presence of various amounts of SSG for 16 hours. The cells and culture medium supernatants were separated by centrifugation (1,000 g, 10 min). The amounts of IFN-gamma in the culture medium supernatants were quantified using an ELISA kit (R.D. system, Minneapolis, Minn.) following the manufacturer's protocol.

T1 sequence (Q12974 whole entry): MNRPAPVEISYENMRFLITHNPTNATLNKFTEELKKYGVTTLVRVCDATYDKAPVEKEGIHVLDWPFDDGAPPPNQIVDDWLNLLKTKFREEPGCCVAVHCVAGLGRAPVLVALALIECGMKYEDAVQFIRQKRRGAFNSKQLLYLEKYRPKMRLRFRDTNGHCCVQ

With `O.O.O.O.O.O.O.O.O.O=C([O-])[C@@H]1[O][Sb]2([O-])([O][Sb]34([OH])[O][C@H]([C@H](O)CO)[C@H]([O]3)[C@H](C(=O)[O-])[O]4)[O][C@H]([C@H](O)CO)[C@@H]1[O]2.[Na+].[Na+].[Na+]` [sodium stibogluconate] as the molecule, how does the “time required for full removal of effect on intracellular PRL-2” value ([1]; brief treatment) read?
The value was “at least 24 hours”.

What about the “PTPase activity of immunocomplexes from treated Flag-PRL-2 transfectants” value ([1]; cells treated 5 min) of the same molecule?
Its value is “lack of PTPase activity”.

And the “PTPase activity of immunocomplexes from treated Flag-PRL-3 transfectants” value [2]?
The value was “lack of PTPase activity”.

And the “reversal of NB4 differentiation after drug removal” value [3]?
The value was “not reversed”.

And the “GM-CSF-induced proliferation of TF-1 cells” value ([4]; GM-CSF 5-40 ng/ml)?
The value was “augmented”.

And the “growth inhibition activity of IFN-alpha on TF-1 cells in presence of drug” value ([4]; with GM-CSF and IFN-alpha)?
The value was “enhanced”.

And the “induction of cellular protein tyrosine phosphorylation” value ([5]; Baf3 deprived of IL-3, compared with pervanadate 0.1 mM)?
Its value is “modest and transient”.

What about the “phosphotyrosine levels of Jak2 and Stat5 versus cells without drug” value ([5]; IL-3 stimulated, densitometry) of the same molecule?
Its value is “about twice”.

What about the “Jak2/Stat5 tyrosine phosphorylation by drug alone” value ([5]; no IL-3, 16 hours at 37 °C) of the same molecule?
The value was “failed to induce Jak2/Stat5 tyrosine phosphorylation”.

And the IFN-gamma secretion [6]?
Its IFN-gamma secretion is “increased amounts of IFN-gamma”.
